Series [1] in a line: Solubility of the drug substance. In kind it is physicochemical. Conditions: qualitative statement. The source says: Due to its diversified pharmacological properties, Compound A is useful in treating, preventing, and/or managing various diseases or disorders.
Series [2] deals with PDE4 enzyme from U937 human monocytic cells. Briefly: Enzyme assay using purified PDE4 enzyme. The format is biochemical. The source says: Cyclopropane carboxylic acid {2-[(1S)-1-(3-ethoxy-4-methoxy-phenyl)-2-methanesulfonyl-ethyl]-3-oxo-2,3-dihydro-1H-isoindol-4-yl}-amide (“Compound A”) is a novel compound with anti-inflammatory activity in clinical development for the treatment of a variety of chronic inflammatory conditions. Pharmacologically, Compound A blocks the degradation of cyclic adenosine monophosphate (cAMP) via inhibition of the phosphodiesterase type IV (PDE4) enzyme, resulting in an increase in cAMP in PDE4-expressing cells including monocytes, T cells, and neutrophils. Enzyme assay data using purified PDE4 enzyme from U937 human monocytic cells indicate that Compound A has a PDE4 IC50 of 100 nM (50 ng/mL). Compound A and methods for its synthesis are described, e.g., in U.S. Patent Publication No. 2010/0129363, the disclosure of which is hereby incorporated by reference in its entirety. Compound A may also be prepared according to the process described in U.S. Patent Publication No. 2010/0168475, the disclosure of which is hereby incorporated in its entirety.

Molecules are shown by their SMILES.

One may read the IC50 as the concentration that inhibits the measured activity by half. A higher IC50 goes with a need for much substance.

In the case of `CCOc1cc([C@@H](CS(C)(=O)=O)N2Cc3cccc(NC(=O)C4CC4)c3C2=O)ccc1OC` [Compound A, cyclopropanecarboxylic acid {2-[(1S)-1-(3-ethoxy-4-methoxy-phenyl)-2-methanesulfonyl-ethyl]-3-oxo-2,3-dihydro-1H-isoindol-4-yl}-amide], the Solubility result in series [1] is “poorly soluble”. The same compound displayed an IC50 in series [2] of 100 nM. The “PDE4 IC50” value in series [2] (same value in mass units) came out at 0.05 µg/mL.

The record behind these values is patent US9884042B2, “Formulations of cyclopropanecarboxylic acid {2-[(1S)-1-(3-ethoxy-4-methoxy-phenyl)-2-methanesulfonyl-ethyl]-3-oxo-2,3-dihydro-1H-isoindol-4-yl}-amide” (Celgene Corporation, priority 2011, dated 2018).
